For this test, the target named is Recombinant human KIF18A (1-467His-tagged) protein (Homo sapiens (Human), UniProt Q8NI77). Briefly: KIF18A enzyme assay (microtubule-stimulated ATPase activity, ADP-Glo). In kind it is biochemical. As to conditions: 30 nM KIF18A, ATP 75 μM, read-out: inhibitory activity against KIF18A IC50. Here is the method: Biological Example 1. Assay for In Vitro Inhibition of Enzymatic Activity of KIF18A by Compounds of the Present Invention
KIF18A enzyme assay: The enzymatic activity of KIF18A after treatment with the compounds was measured by an assay of microtubule-stimulated ATPase activity. ADP generated from the ATPase reaction was measured in this assay. The compounds were serially diluted 2-fold in DMSO over a range of 22 concentration points. Recombinant human KIF18A (1-467His-tagged) protein was expressed using a baculovirus system. Concentrations of KIF18A protein, microtubules, and ATP in the reaction were optimized for a standardized homogenous enzyme assay using an ADP-Glo kinase/ATPase assay kit. A reaction buffer [(15 mM Tris, pH 7.5), 10 mM MgCl2, 0.01% PluronicF-68, 1 μM paclitaxel, and 30 μg/mL pig microtubules] was prepared. The compounds and KIF18A protein (30 nM) were added to the prepared reaction buffer, and the reaction mixture was incubated at room temperature for 15 min, followed by addition of ATP (Km, 75 μM). The resulting reaction mixture was incubated at room temperature for another 15 min. 5 μL of ADP-Glo reagent and 2.5 μL of the reaction mixture were mixed and the resulting mixture was incubated at room temperature for 40 min. 10 μL of ADP-Glo detection reagent was added and the mixture was incubated at room temperature for 40 min. Luminescence was measured using a microplate reader and compared with that of the DMSO group, and then the inhibition percentages and IC50 values of the compounds were calculated.

Sequence of Recombinant human KIF18A (1-467His-tagged) protein (Q8NI77 1-467): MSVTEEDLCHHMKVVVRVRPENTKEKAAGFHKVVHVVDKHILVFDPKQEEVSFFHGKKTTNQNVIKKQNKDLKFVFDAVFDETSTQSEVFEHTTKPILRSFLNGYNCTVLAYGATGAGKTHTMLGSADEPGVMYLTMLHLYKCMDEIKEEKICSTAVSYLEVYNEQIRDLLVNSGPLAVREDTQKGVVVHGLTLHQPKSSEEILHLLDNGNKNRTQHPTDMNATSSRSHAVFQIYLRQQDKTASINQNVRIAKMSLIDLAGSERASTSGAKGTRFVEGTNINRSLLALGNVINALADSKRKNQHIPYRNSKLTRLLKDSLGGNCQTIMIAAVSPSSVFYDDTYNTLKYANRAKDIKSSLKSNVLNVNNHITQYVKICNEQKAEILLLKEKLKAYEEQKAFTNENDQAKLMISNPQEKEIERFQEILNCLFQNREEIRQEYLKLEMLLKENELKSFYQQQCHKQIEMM
Sequence of Recombinant human KIF18A (1-467His-tagged) protein (P02550 whole entry partner): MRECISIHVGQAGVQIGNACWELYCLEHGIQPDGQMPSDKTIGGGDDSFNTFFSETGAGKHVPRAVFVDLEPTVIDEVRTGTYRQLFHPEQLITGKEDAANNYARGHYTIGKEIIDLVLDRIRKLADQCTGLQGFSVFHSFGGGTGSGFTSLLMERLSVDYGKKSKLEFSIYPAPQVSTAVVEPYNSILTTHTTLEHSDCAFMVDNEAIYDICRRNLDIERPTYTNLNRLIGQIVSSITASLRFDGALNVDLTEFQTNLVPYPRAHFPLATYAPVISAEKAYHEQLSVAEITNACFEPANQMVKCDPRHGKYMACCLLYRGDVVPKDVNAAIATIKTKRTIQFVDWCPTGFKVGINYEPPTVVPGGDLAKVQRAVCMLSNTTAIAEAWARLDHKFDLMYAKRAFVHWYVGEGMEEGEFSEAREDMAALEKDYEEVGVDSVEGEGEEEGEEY
Sequence of Recombinant human KIF18A (1-467His-tagged) protein (P02554 whole entry partner): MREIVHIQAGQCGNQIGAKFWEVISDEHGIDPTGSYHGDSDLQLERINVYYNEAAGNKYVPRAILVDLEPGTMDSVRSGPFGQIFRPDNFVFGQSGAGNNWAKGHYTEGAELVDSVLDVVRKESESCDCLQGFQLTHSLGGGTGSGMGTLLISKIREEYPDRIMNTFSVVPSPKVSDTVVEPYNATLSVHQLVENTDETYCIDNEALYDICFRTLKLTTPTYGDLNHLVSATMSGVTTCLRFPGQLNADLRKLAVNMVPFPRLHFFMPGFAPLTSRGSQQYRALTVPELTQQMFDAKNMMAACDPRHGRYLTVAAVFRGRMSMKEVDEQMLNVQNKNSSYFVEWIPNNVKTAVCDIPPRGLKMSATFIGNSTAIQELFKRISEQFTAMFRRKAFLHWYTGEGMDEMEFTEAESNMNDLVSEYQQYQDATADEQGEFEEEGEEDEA

Consider `CC1(F)CCN(c2cc(NC(=O)c3ccc(NS(=O)(=O)CCO)cc3N3CCC4(CC3)CC4)cc3c2OCC3)C1` (stereo not drawn) [Compound 8], for which the concentration for half-maximal inhibition (IC50) is at most 100 nM.

As for `O=C(Nc1cc2c(c(N3CCC(F)CC3)c1)OCC2)c1ccc(NS(=O)(=O)CCO)cc1N1CCC2(CC1)CC2` [Compound 9], the IC50 was at most 100 nM. On to `O=C(Nc1cc2c(c(N3CC4CC4C3)c1)OCC2)c1ccc(NS(=O)(=O)CCO)cc1N1CCC2(CC1)CC2` (stereo not drawn) [Compound 10], for which the IC50 is at most 100 nM.

`CC(C)(CO)Nc1cc(NC(=O)c2ccc(NS(=O)(=O)CCO)cc2N2CCC3(CC2)CC3)cc2c1OCC2` [Compound 11]: the IC50 was at most 100 nM. Take `O=C(Nc1cc2c(c(N3CCOCC3)c1)OCC2)c1ccc(NS(=O)(=O)CCO)cc1N1CCC2(CC1)CC2` [Compound 12]: the IC50 is at most 100 nM. The figure for `C[C@@H](CO)S(=O)(=O)Nc1ccc(C(=O)Nc2cc3c(c(N4CCC(F)(F)CC4)c2)OCC3)c(N2CCC3(CC2)CC3)c1` [Compound 13] is at most 100 nM; for `C[C@H](CO)S(=O)(=O)Nc1ccc(C(=O)Nc2cc3c(c(N4CCC(F)(F)CC4)c2)OCC3)c(N2CCC3(CC2)CC3)c1` [Compound 14] it is at most 100 nM. The figure for `C[C@@H]1CN(c2cc(NC(=O)c3ccc(NS(=O)(=O)[C@@H](C)CO)cc3N3CCC4(CC3)CC4)cc3c2OCC3)CCO1` [Compound 15] is at most 100 nM; for `C[C@@H]1CN(c2cc(NC(=O)c3ccc(NS(=O)(=O)[C@H](C)CO)cc3N3CCC4(CC3)CC4)cc3c2OCC3)CCO1` [Compound 16] it is at most 100 nM. In the case of `O=C(Nc1cc2c(c(N3CCC(F)(F)CC3)c1)OCC2)c1ccc(S(=O)(=O)NCCO)cc1N1CCC2(CC1)CC2` [Compound 17] it was at most 100 nM; in that of `C[C@@H]1CN(c2cc(NC(=O)c3ccc(S(=O)(=O)NCCO)cc3N3CCC4(CC3)CC4)cc3c2OCC3)CCO1` [Compound 18], at most 100 nM; in that of `C[C@H]1CN(c2cc(NC(=O)c3ccc(S(=O)(=O)NCCO)cc3N3CCC4(CC3)CC4)cc3c2OCC3)CCO1` [Compound 19], at most 100 nM.

Regarding `O=C(Nc1cc2c(c(N3CC(F)(F)C3)c1)OCC2)c1ccc(S(=O)(=O)NCCO)cc1N1CCC2(CC1)CC2` [Compound 20], the 50% inhibitory concentration (IC50) is at most 100 nM. In the case of `O=C(Nc1cc2c(c(OCCC(F)(F)F)c1)OCC2)c1ccc(S(=O)(=O)NCCO)cc1N1CCC2(CC1)CC2` [Compound 21], the IC50 was at most 100 nM. In the case of `O=C(Nc1cc2c(c(N3CCC4(CC4)C3)c1)OCC2)c1ccc(S(=O)(=O)NCCO)cc1N1CCC2(CC1)CC2` [Compound 22] it was at most 100 nM; in that of `O=C(Nc1cc2c(c(OC3CCC3)c1)OCC2)c1ccc(S(=O)(=O)NCCO)cc1N1CCC2(CC1)CC2` [Compound 23], at most 100 nM. The figure for `CC1(F)CCN(c2cc(NC(=O)c3ccc(S(=O)(=O)NCCO)cc3N3CCC4(CC3)CC4)cc3c2OCC3)C1` (stereo not drawn) [Compound 24] is at most 100 nM; for `O=C(Nc1cc2c(c(N3CCC(F)CC3)c1)OCC2)c1ccc(S(=O)(=O)NCCO)cc1N1CCC2(CC1)CC2` [Compound 25] it is at most 100 nM.

Turning to `O=C(Nc1cc2c(c(N3CC4CC4C3)c1)OCC2)c1ccc(S(=O)(=O)NCCO)cc1N1CCC2(CC1)CC2` (stereo not drawn) [Compound 26], the IC50 was at most 100 nM.

Regarding `CC(C)(CO)Nc1cc(NC(=O)c2ccc(S(=O)(=O)NCCO)cc2N2CCC3(CC2)CC3)cc2c1OCC2` [Compound 27], the IC50 was at most 100 nM. In the case of `O=C(Nc1cc2c(c(N3CCOCC3)c1)OCC2)c1ccc(S(=O)(=O)NCCO)cc1N1CCC2(CC1)CC2` [Compound 28] it was at most 100 nM; in that of `C[C@@H](CO)NS(=O)(=O)c1ccc(C(=O)Nc2cc3c(c(N4CCC(F)(F)CC4)c2)OCC3)c(N2CCC3(CC2)CC3)c1` [Compound 29], at most 100 nM; in that of `C[C@H](CO)NS(=O)(=O)c1ccc(C(=O)Nc2cc3c(c(N4CCC(F)(F)CC4)c2)OCC3)c(N2CCC3(CC2)CC3)c1` [Compound 30], at most 100 nM. The figure for `C[C@@H]1CN(c2cc(NC(=O)c3ccc(S(=O)(=O)N[C@@H](C)CO)cc3N3CCC4(CC3)CC4)cc3c2OCC3)CCO1` [Compound 31] is at most 100 nM. The figure for `C[C@H](CO)NS(=O)(=O)c1ccc(C(=O)Nc2cc3c(c(N4CCO[C@H](C)C4)c2)OCC3)c(N2CCC3(CC2)CC3)c1` [Compound 32] is at most 100 nM. For the compound `C[C@@H]1CN(c2cc(C(=O)Nc3ccc(NS(=O)(=O)CCO)cc3N3CCC4(CC3)CC4)cc3c2OCC3)CCO1` [Compound 34], the IC50 is at most 100 nM. In the case of `C[C@H]1CN(c2cc(C(=O)Nc3ccc(NS(=O)(=O)CCO)cc3N3CCC4(CC3)CC4)cc3c2OCC3)CCO1` [Compound 35] it was at most 100 nM. The figure for `O=C(Nc1ccc(NS(=O)(=O)CCO)cc1N1CCC2(CC1)CC2)c1cc2c(c(N3CC(F)(F)C3)c1)OCC2` [Compound 36] is at most 100 nM. In the case of `O=C(Nc1ccc(NS(=O)(=O)CCO)cc1N1CCC2(CC1)CC2)c1cc2c(c(OCCC(F)(F)F)c1)OCC2` [Compound 37] it was at most 100 nM; in that of `O=C(Nc1ccc(NS(=O)(=O)CCO)cc1N1CCC2(CC1)CC2)c1cc2c(c(N3CCC4(CC4)C3)c1)OCC2` [Compound 38], at most 100 nM; in that of `O=C(Nc1ccc(NS(=O)(=O)CCO)cc1N1CCC2(CC1)CC2)c1cc2c(c(OC3CCC3)c1)OCC2` [Compound 39], at most 100 nM. With `CC1(F)CCN(c2cc(C(=O)Nc3ccc(NS(=O)(=O)CCO)cc3N3CCC4(CC3)CC4)cc3c2OCC3)C1` (stereo not drawn) [Compound 40], the IC50 was at most 100 nM. The figure for `O=C(Nc1ccc(NS(=O)(=O)CCO)cc1N1CCC2(CC1)CC2)c1cc2c(c(N3CCC(F)CC3)c1)OCC2` [Compound 41] is at most 100 nM; for `O=C(Nc1ccc(NS(=O)(=O)CCO)cc1N1CCC2(CC1)CC2)c1cc2c(c(N3CC4CC4C3)c1)OCC2` (stereo not drawn) [Compound 42] it is at most 100 nM; for `CC(C)(CO)Nc1cc(C(=O)Nc2ccc(NS(=O)(=O)CCO)cc2N2CCC3(CC2)CC3)cc2c1OCC2` [Compound 43] it is at most 100 nM. For `O=C(Nc1ccc(NS(=O)(=O)CCO)cc1N1CCC2(CC1)CC2)c1cc2c(c(N3CCOCC3)c1)OCC2` [Compound 44], the IC50 is at most 100 nM. For the compound `C[C@@H](CO)S(=O)(=O)Nc1ccc(NC(=O)c2cc3c(c(N4CCC(F)(F)CC4)c2)OCC3)c(N2CCC3(CC2)CC3)c1` [Compound 45], the half-maximal inhibitory concentration (IC50) was at most 100 nM. For the compound `C[C@H](CO)S(=O)(=O)Nc1ccc(NC(=O)c2cc3c(c(N4CCC(F)(F)CC4)c2)OCC3)c(N2CCC3(CC2)CC3)c1` [Compound 46], the IC50 was at most 100 nM. The figure for `C[C@@H]1CN(c2cc(C(=O)Nc3ccc(NS(=O)(=O)[C@@H](C)CO)cc3N3CCC4(CC3)CC4)cc3c2OCC3)CCO1` [Compound 47] is at most 100 nM. The figure for `C[C@@H]1CN(c2cc(C(=O)Nc3ccc(NS(=O)(=O)[C@H](C)CO)cc3N3CCC4(CC3)CC4)cc3c2OCC3)CCO1` [Compound 48] is at most 100 nM; for `C[C@@H]1CN(c2cc(C(=O)Nc3ccc(S(=O)(=O)NCCO)cc3N3CCC4(CC3)CC4)cc3c2OCC3)CCO1` [Compound 50] it is at most 100 nM.

Turning to `C[C@H]1CN(c2cc(C(=O)Nc3ccc(S(=O)(=O)NCCO)cc3N3CCC4(CC3)CC4)cc3c2OCC3)CCO1` [Compound 51], the IC50 is at most 100 nM. The figure for `O=C(Nc1ccc(S(=O)(=O)NCCO)cc1N1CCC2(CC1)CC2)c1cc2c(c(N3CC(F)(F)C3)c1)OCC2` [Compound 52] is at most 100 nM. The figure for `O=C(Nc1ccc(S(=O)(=O)NCCO)cc1N1CCC2(CC1)CC2)c1cc2c(c(OCCC(F)(F)F)c1)OCC2` [Compound 53] is at most 100 nM. `O=C(Nc1ccc(S(=O)(=O)NCCO)cc1N1CCC2(CC1)CC2)c1cc2c(c(N3CCC4(CC4)C3)c1)OCC2` [Compound 54]: the IC50 is at most 100 nM.

`O=C(Nc1ccc(S(=O)(=O)NCCO)cc1N1CCC2(CC1)CC2)c1cc2c(c(OC3CCC3)c1)OCC2` [Compound 55]: the IC50 is at most 100 nM. In the case of `CC1(F)CCN(c2cc(C(=O)Nc3ccc(S(=O)(=O)NCCO)cc3N3CCC4(CC3)CC4)cc3c2OCC3)C1` (stereo not drawn) [Compound 56] it was at most 100 nM. For the compound `O=C(Nc1ccc(S(=O)(=O)NCCO)cc1N1CCC2(CC1)CC2)c1cc2c(c(N3CCC(F)CC3)c1)OCC2` [Compound 57], the IC50 was at most 100 nM.

For `O=C(Nc1ccc(S(=O)(=O)NCCO)cc1N1CCC2(CC1)CC2)c1cc2c(c(N3CC4CC4C3)c1)OCC2` (stereo not drawn) [Compound 58], the IC50 was at most 100 nM. Turning to `CC(C)(CO)Nc1cc(C(=O)Nc2ccc(S(=O)(=O)NCCO)cc2N2CCC3(CC2)CC3)cc2c1OCC2` [Compound 59], the IC50 is at most 100 nM. As to `O=C(Nc1ccc(S(=O)(=O)NCCO)cc1N1CCC2(CC1)CC2)c1cc2c(c(N3CCOCC3)c1)OCC2` [Compound 60], the IC50 was at most 100 nM. In the case of `C[C@@H](CO)NS(=O)(=O)c1ccc(NC(=O)c2cc3c(c(N4CCC(F)(F)CC4)c2)OCC3)c(N2CCC3(CC2)CC3)c1` [Compound 61] it was at most 100 nM; in that of `C[C@H](CO)NS(=O)(=O)c1ccc(NC(=O)c2cc3c(c(N4CCC(F)(F)CC4)c2)OCC3)c(N2CCC3(CC2)CC3)c1` [Compound 62], at most 100 nM; in that of `C[C@@H]1CN(c2cc(C(=O)Nc3ccc(S(=O)(=O)N[C@@H](C)CO)cc3N3CCC4(CC3)CC4)cc3c2OCC3)CCO1` [Compound 63], at most 100 nM.

The record behind these values is US20250197382A1, “KIF18A INHIBITOR” (WIGEN BIOMEDICINE TECHNOLOGY (SHANGHAI) CO., LTD., priority 2022, published 2025).
